These results are taken from US7666842B2, “Elastin peptide analogs and uses thereof” (Connective Tissue Imagineering, LLC, priority 1998, dated 2010).

Data set [1] has as its system RFL-6 cells. The experiment in a line: Tritiated thymidine incorporation in RFL-6 cells. The settings on record: synthetic peptides, 24 hour incubation with RFL-6 cells. (Dividing cells build labelled thymidine or BrdU into new DNA.)
Description: Synthetic peptides were tested for their ability to stimulate incorporation of tritiated thymidine with a 24 hour incubation with RFL-6 cells.
The test system of data set [2] is RFL-6 cells. The experiment in a line: BrdUTP incorporation assay (mRNA, green fluorescence) in RFL-6 cells. Format: cell-based. The following applies: sub-fractions of Fraction #3 (HPLC peaks at 215 nm); Blank (Background) 30. As for the experimental part:
A study was performed to determine whether different peptides had different activities in promoting skin health. Elastin protein was partially digested with thermolysin and the resulting peptides (i.e., SEQ ID 1-SEQ ID 41) were applied to an HPLC column. Five fractions containing clusters of peptides were collected from the column in the 5-50 minute range. The fractions were tested for activity using a bromodeoxyuridine Triphosphate (BrdUTP) incorporation assay in RFL-6 cells. The assay measures production of mRNA involved in protein synthesis.
Fraction #3 was sub-fractionated into 10 fractions corresponding to ten major peaks identified on the HPLC (at 215 nm). Table VI below illustrates the green fluorescence intensity as a measure of increased mRNA in RFL-6 cells in response to sub-fractionated portions of Fraction #3.

Data set [3] relates to human keratinocytes. The experiment in a line: Viability of human keratinocytes (MTT). It counts as cell-based. The settings on record: 10^−4 M to 10^−8 M. As for the experimental part:
Human keratinocytes were obtained from surgical items and were cultivated in a monolayer until preconfluence. The 7α-hydroxy-DHEA was administered to these cultures at various concentrations in ethanolic solution (10%), each concentration being tested eight times. Controls were carried out with ethanol alone (10%). After twenty-four hours, the viability of the keratinocytes was measured by testing with MTT (3-(4,5-dimethylthiazol-2-yl)-2,5 diphenyl tetrazolium bromide) where the mitochondrial dehydrogenase succinate converts the MTT into blue crystals of formazan soluble in DMSO (Mosmann, J. Immunol. Methods 65: 55-63, 1983). The cellular viability is calculated according to the formula: % viability=DO540 product×100/DO540 control.
A value greater than 100 indicates a product that encourages cellular viability.

The test system of data set [4] is human fibroblasts. The experiment in a line: Proliferation of human fibroblasts in culture (cell count). It counts as cell-based. The following applies: 72 hours of contact, control 190,667 ± 6,766. How it is done:
Cultures of human fibroblasts (from a person) were seeded on twenty-four site plates at the rate of 50,000 cells per site in a standard culture medium (DMEM, gentamycine, amphotericine B, penicillin, L-glutamine, 10% SVF). The tests were carried out on four series of three sites. After twenty-four hours, the fibroblasts adhered to the support and three series were treated with 7α-hydroxy-DHEA at concentrations of 10^−6 M, 5×10^−6 M and 10^−7 M. The fourth series only contained the vector (ethanol). The media were renewed daily, and at ninety-six hours (seventy-two hours of test contact with the 7α-hydroxy-DHEA), the fibroblasts were counted on a Malassez cell in the presence of blue trypan.

For data set [5], the system named is human keratinocytes. The experiment in a line: Anti-radical effect on UVA-irradiated human keratinocytes (lipoid peroxides, chemiluminescence). Format: cell-based. The following applies: 10^−6 M. The text has this: Keratinocytes from a healthy donor were cultivated to the subconfluent stage in a specific medium (KGM) for the proliferation of keratinocytes. The suspensions obtained were split up, in triplicate, into four series, of which three were irradiated for thirty minutes with a lamp emitting UVA so as to speed up the production of free radicals. Among the three irradiated series, one contained Vitamins C and E (0.7%) and was used as a protection reference; one contained 7α-hydroxy-DHEA at 10^−6 M and the last served as a control.
The free radicals produced generated lipoid peroxides which are measured by chemiluminescence (Belghmi et al. J Biolum. Chemilum. 2: 113-119, 1982). The effectiveness of the 7α-hydroxy-DHEA was calculated on the basis of non-irradiated controls and the protection reference.

Data set [6] is described as follows: In-vitro oxygen radical assay (luminol chemiluminescence, hydrogen peroxide). Format: biochemical. The following applies: diluted luminol pre-incubated with compound; 100 μg/ml for DHEA. How it is done:
The ability of a compound to scavenge free radicals may implicate it as an anti-oxidizing agent. To test whether DHEA or it derivatives had the ability to capture free radicals, an in-vitro oxygen radical assay was used. The assay was run in quadruplicate to perfect the concentrations of controls as well as test the diluents (phosphate buffered saline (PBS) and DMSO) in which the DHEA and its derivatives were dissolved. The positive controls used were homocysteine and ascorbic acid (Vitamin C).

In data set [7] the test system is skins of neonatal male Sprague-Dawley rats. The experiment in a line: Elastin content of neonatal rat skin (HPLC of thermolysin-produced peptides). The following applies: 0.5% in carrier twice daily, 30 days; five animals per group. It counts as in vivo. How it is done: (§1) DHEA and the derivative compounds of DHEA (the 7 hydroxy derivative and 7 hydroxy-isoandrosterone) modified the elastin and collagen contents of neonatal rat skin when applied twice daily over a 30 day period at a concentration of 0.5% in a suitable carrier.
(§2) Collagen and elastin contents were measured on dry, defatted, hair-free skin samples. Collagen contents were assessed through hydroxyproline evaluations in hydrolyzed, 0.1N hot sodium hydroxide extracts. Elastin contents were measured by HPLC evaluation of the contents of thermolysin-produced peptides in digests of the hot sodium hydroxide residue. Controls were both shaven and unshaven, the shaven receiving only the carrier twice daily.
(§3) Elastin contents were increased by all the compounds (28% for DHEA, 30% for the 7 hydroxy derivative and the 7 hydroxy-isoandrosterone). In these studies, statistical analysis of variance was significant at an alpha level of 0.01. Similar to the histological observations, these chemistries were reversible. Collagen and elastin contents returned to near normal levels after cessation of treatment for 30 days.

For data set [8] the test system is unchanged. The experiment in a line: Collagen content of neonatal rat skin (hydroxyproline). It counts as in vivo. The following applies: 0.5% in carrier twice daily, 30 days; five animals per group. How it is done:
as §1, §2, §3

In data set [9] the test system is skin of treated rats. The experiment in a line: Fluorescent micrographs of skin cross-sections stained with anti-fibronectin antibodies (Example 3). The settings on record: FIG. 2C DHEA topical, FIG. 2D peptide composition. Format: in vivo, rat. The text has this:
FIGS. 2A-D are fluorescent micrographs of fixed skin cross-sections taken from rats treated as described in Example 3, and stained with fluorescein-conjugated anti-fibronectin antibodies. FIG. 2A is a representative sample from the unshaven control tissue; FIG. 2B is a representative sample from the shaven control sample; FIG. 2C is a representative sample of tissue which received DHEA topical treatment; and FIG. 2D is a representative sample of tissue which received treatment of a composition containing peptides, as described in Example 2. In each of the panels, the dermal layer of the skin is indicated by a bracket.
The capillary venules are shown in this figure as brightly stained oval bodies that lie beneath the dermal layer. The increase in the concentration of endothelial cells in the subdermal region indicates an increase in capillary density and therefore illustrates the potential for the peptides and formulations of the present invention to be used for the formation of blood vessels or capillary venules (neovascularization or angiogenesis).

The subject of data set [10] is skin of Sprague-Dawley male rats. The experiment in a line: Elastin content of rat skin after topical treatment (Example 2). It counts as in vivo. The settings on record: topical DHEA, 5% concentration, similar time period; S CONTR 1.408, US CONTR 2.291. As for the experimental part: Topical treatment of Sprague-Dawley male rats with a composition including peptides (i.e., SEQ IDs 1-41) at a concentration of about 1.3% (wt/wt) of the formulation over a one month period was performed. The rats were treated topically with a 1.3% concentration (wt/wt) of the preparation of the hydrophilic elastin peptide for a period of 30 days. […] Three animals each were used to generate the data for S CONTR, US CONT, and DHEA and eleven animals were used for HEP. Three skin samples from the treated areas of each animal were taken for study, and the three results from each animal were averaged. […] The elastin content of the skin was determined by a precise assay for rat elastin developed by Sandberg, et al. (Connective Tissue Research 25:139-48, 1990) the assay portion of which is hereby incorporated herein by reference thereto. […]
An alpha level less than 0.001 for the data as determined by analysis of variance is significant because there is less than one chance in a thousand that the findings occur by chance.

For data set [11], the system named is rat skin. The experiment in a line: H&E histology of treated rat skin (Example 6). Format: in vivo. The following applies: for Outer (keratin) layer and vascularity of the inner layer: treated skin sections; for Thickness of the dermal layer of skin: vs untreated controls (both shaven and unshaven). As for the experimental part:
Rat skin was treated with 7-hydroxy DHEA and 7-hydroxy isoandrosterone. Skin cross sections were stained with hematoxylin and eosin (H&E) and examined histologically. […] The DHEA and derivatives induction of dermal thickening was reversible. A subset of experimental animals within each treatment group were left untreated for 30 days. Upon examination, treated skin sections were indistinguishable from the untreated. Concomitant toxicological studies found no significant toxicity when the compounds were used at 0.5% concentration in a suitable carrier applied twice daily (12 hour intervals) for 30 days.

Ends that are not written are not given here.

For the molecule “Valine-Valine-Proline-Glutamine-Amide [SEQ ID 42]”, the “Tritiated thymidine incorporation, % CPM above the control” value in [1] was about 1 % CPM above the control.
In the case of “Valine-Glycine-Proline-Alanine [SEQ ID 14]”, the “% Change of Green Fluorescence Intensity” value in [2] worked out at 39%.
For the molecule `C[C@]12CC[C@H](O)CC1=C[C@@H](O)[C@@H]1[C@@H]2CC[C@]2(C)C(=O)CC[C@@H]12` [7α-hydroxy-DHEA, 3β,7α-dihydroxy-5-androstene-17-one], in [3], the “Cytotoxicity on human keratinocytes” value is “no cytotoxicity was observed”. Further, the entries for the “Number of Fibroblasts” value in data set [4] (5 × 10^−6 M), in data set [4] (10^−6 M) and in data set [4] (10^−7 M) were 258,667 ± 3,351, 268,000 ± 27,154 and 230,667 ± 8,511, respectively. Also, in data set [5] (UVA irradiated 30 minutes, non irradiated 2,529 ± 153, irradiated controls 427,750 ± 137,322), the Chemiluminescence is 44,164 ± 13,303. Besides, in data set [5] (UVA irradiated, calculated on non-irradiated controls and protection reference), the Effectiveness is recorded as 90%.
For the molecule “Alanine-Alanine-Alanine-Glutamine-Alanine (AAAQA; listed as Homo sapiens) [SEQ ID 22]”, the “% Change of Green Fluorescence Intensity” value in data set [2] was determined as 20%.
On to `C[C@]12CC[C@H](O)CC1=CC[C@@H]1[C@@H]2CC[C@]2(C)C(=O)CC[C@@H]12` [DHEA, 3β-hydroxy-5-androstene-17-one, reference compound], for which the “Reduction of luminol light emission” value in data set [6] was 20%. Besides, in [7], the “Elastin contents increased by” value was 28%. Moreover, the Collagen decrease in data set [8] was determined as 16%. The “Dermal layer of control skin (FIGS. 2A and B) compared to treated skin (FIGS. 2C and D)” value in [9] is “thin compared to the thickness of the dermal layers in FIGS. 2C and D”. Further, the “Elastin content of the skin (mean)” value in data set [10] was 1.753 μg Elastin per mg Skin Fat Fre.
Take “Acetyl-GAVVPQ--NH2 (Ac-GAVVPQ-NH2; listed as Homo sapiens) [SEQ ID 44]”: the “Tritiated thymidine incorporation, % CPM above the control” value in data set [1] is given as about 5 % CPM above the control.
For “Leucine-Glycine-Alanine-Glycine-Glycine-Alanine-Glycine [SEQ ID 19]”, the “Tritiated thymidine incorporation, % CPM above the control” value in [1] was about 18 % CPM above the control.
Consider “Valine-Tyrosine-Proline-Glycine-Glycine [SEQ ID 24]”, for which, in data set [2], the “% Change of Green Fluorescence Intensity” value came out at 38%.
For the molecule `C[C@]12CC[C@H](O)C[C@@H]1CC(O)[C@@H]1[C@@H]2CC[C@]2(C)C(=O)CC[C@@H]12` (some centres unmarked) [7-hydroxy isoandrosterone], in data set [6], the “Reduction of luminol light emission” value amounted to 15%. In data set [11], the “Outer (keratin) layer and vascularity of the inner layer” value is reported as “no change in the outer (keratin) layer nor increase of vascularity of the inner layer”; the “Thickness of the dermal layer of skin” value is reported as “thickened to nearly twice that of the untreated controls”. Moreover, the “Elastin contents increased by” value in data set [7] was 30%. The “Collagen increased by” value in [8] turned out to be 24%.
Take “Acetyl-VVPQ (Ac-VVPQ; listed as Homo sapiens) [SEQ ID 43]”: the “Tritiated thymidine incorporation, % CPM above the control” value in [1] was about 1 % CPM above the control.
Still for that read-out and setting: the result for “GAVVPQ--NH2 (GAVVPQ-NH2; listed as Homo sapiens) [SEQ ID 48]” reads about 25 % CPM above the control.
Turning to `C[C@]12CC[C@H](O)CC1=C[C@H](O)[C@@H]1[C@@H]2CC[C@]2(C)C(=O)CC[C@@H]12` [7-hydroxy DHEA], in data set [6], the “Reduction of luminol light emission” value is “did not cause any reduction”. In addition, in data set [11], the “Outer (keratin) layer and vascularity of the inner layer” value was “no change in the outer (keratin) layer nor increase of vascularity of the inner layer”; the “Thickness of the dermal layer of skin” value was “thickened to nearly twice that of the untreated controls”. For the same molecule, the “Elastin contents increased by” value in data set [7] is recorded as 30%. Also, the “Collagen increased by” value in data set [8] is on record as 24%.
Regarding “Valine-Valine-Proline-Glutamine [SEQ ID 17]”, the “Tritiated thymidine incorporation, % CPM above the control” value in data set [1] is given as about 28 % CPM above the control. For the same molecule, the “% Change of Green Fluorescence Intensity” value in data set [2] is recorded as 85%.
As to “Valine-Glycine-Valine-Hydroxy-proline-Glycine [SEQ ID 23]”, the “% Change of Green Fluorescence Intensity” value in [2] was found to be 57%.
